Consider 1 compound from patent US11117888B2, “Irreversible inhibitors of pyruvate kinase M2 and the use thereof” (China Medical University, priority 2020, dated 2021).

For experiment [1], the system named is MDA-MB-231 breast cancer cells. Nature of the experiment: MTT cell viability assay, MDA-MB-231. As to conditions: Homo sapiens; MDA-MB-231, MTT, 24 hours. Type of experiment: cell-based. The source says:
(§1) Cell lines, cell culture, biochemical reagents, and antibodies. MiaPaCa-2, AsPC-1, and Panc-1 human pancreatic cancer cells, MCF-7 and MDA-MB-231 breast cancer cells, SCC4 and SCC2059 oral cancer cells, PC-3 and LNCaP prostate cancer cells, H157, H460, H1975, PC-9 and H1650 lung cancer cells were obtained from the American Type Culture Collection (ATCC, Manassas, Va.). All these cells were maintained in recommended growth medium (RPMI 1640 or DMEM) supplemented with 10% fetal bovine serum (FBS) (Invitrogen, Carlsbad, Calif., USA) and antibiotics at 37° C. in a humidified incubator containing 5% CO2. For SILAC experiments, PC-9 cells were grown in SILAC DMEM medium (Thermo Fisher) supplemented with 10% dialyzed FBS and 100 μg/mL each of unlabeled L-arginine and L-lysine (light medium) or ^13C/^15N stable isotope-labeled L-arginine and L-lysine (heavy medium). […]
(§2) Cell viability assays. Drug effects on cell viability was assessed by 3-(4,5-dimethylthiazol-2-yl)-2,5-diphenyltetrazolium bromide ([…]) assays. […] The medium was then removed from each well and replaced with DMSO to dissolve the reduced MTT dye for subsequent colorimetric measurement of absorbance at 560 nm. Cell viabilities are expressed as percentages of viable cells relative to the corresponding vehicle-treated control group.
A general note: Tetrazolium dyes change colour on reduction, which living cells bring about.

In experiment [2] the test system is MCF-7 breast cancer cells. The experiment can be described thus: MTT cell viability assay, MCF-7. It is filed as cell-based. The conditions noted are these: Homo sapiens, MCF7; MCF-7, MTT, 24 hours.
Source text: as §1, §2

Experiment [3] deals with PC-3 prostate cancer cells. Nature of the experiment: MTT cell viability assay, PC-3. It is filed as cell-based. The conditions noted are these: Homo sapiens; PC-3, MTT, 24 hours.
Source text: as §1, §2

A further experiment relates to H1975 lung cancer cells. Nature of the experiment: MTT cell viability assay, H1975. It is filed as cell-based. The conditions noted are these: Homo sapiens, NCI-H1975, H1975 (mutant EGFR), 24 hours.
Source text: as §1, §2

The subject of experiment [4] is 246 different kinases (activity) and 143 different kinases (substrate binding). The experiment can be described thus: Kinase profiling analysis (Life Technologies' SelectScreen Profiling Service). As to conditions: 500 nM; activity of 246 kinases, substrate binding to 143 kinases. Type of experiment: biochemical. On the procedure: To shed light onto its potential target, compound 1 was submitted to a commercial vendor for kinase profiling analysis (Life Technologies' SelectScreen Profiling Service), in which the inhibitory effects of compound 1 at 500 nM on the activity of 246 different kinases as well as substrate binding to 143 different kinases were tested.

The test system of experiment [5] is ROS production in PC-9 cells. Nature of the experiment: ROS assay. Type of experiment: cell-based, human. As to conditions: 0.25 μM and 0.5 μM, 6 hours. On the procedure:
ROS assay. ROS detection was performed by using a fluorescent assay kit from BioVision (Milpitas, Calif., USA) according to the manufacturer's instructions. Briefly, PC-9 cells were seeded into 96-well plate at a cell density of 2×10^4 cells per well. After 24 hours, cells were treated with indicated concentration of compound 1 or DMSO for 6 hours. After treatment, cells were washed in ROS assay buffer and then incubated with 1×ROS label diluted in ROS assay buffer for 45 min at 37° C. in the dark. The ROS label was removed, and the fluorescence at Ex/Em 495/529 nm in end point mode was measured immediately after 100 μl of ROS assay buffer was added to each well.

In the next experiment the target is PKM2 (Homo sapiens, UniProt P14618). Nature of the experiment: Recombinant PKM2 kinase activity assay. Set-up: purchased Sigma-Aldrich SAE0021. It is filed as biochemical. As to conditions: after 20 min of exposure. On the procedure:
As this cell-based kinase assay could not rule out the involvement of PKM1, we examined the abilities of compound 1 to inhibit the kinase activity of recombinant PKM2 (SAE0021, Sigma-Aldrich) versus recombinant PKM1 (SRP0415, Sigma-Aldrich) using a commercial PKM assay kit. […] In brief, PC-9 cells were exposed to different concentrations of compound 2 in the presence of compound 1 (1 μM) for 1 hour, lysed, and the cell lysates were treated with biotin-azide, followed by streptavidin bead pulldown under the aforementioned conditions. […] The antigen of compound 1 was prepared by coupling this small molecule with cysteine residues of ovalbumin, which was then used for immunization in guinea pigs.
Pyruvate kinase activity assays. PC-9 cells were seeded into 6 cm dishes at a concentration of 5×10^5 cells/mL. After 24 hours, cells were treated with 0.25 μM compound 1 or DMSO for 6 hours. The pyruvate kinase activity of compound 1-treated PC-9 and vehicle control cells was measured by using a commercial colorimetric assay kit from BioVision (Milpitas, Calif., USA) according to the manufacturer's protocol. In addition, to verify the specificity of compound 1 toward PKM2 versus PKM1, the inhibition of the kinase activity of recombinant PKM1 (SRP0415, Sigma-Aldrich) and recombinant PKM2 (SAE0021, Sigma-Aldrich) by compound 1 was conducted using the aforementioned assay kit.

Sequence of PKM2 (P14618 whole entry): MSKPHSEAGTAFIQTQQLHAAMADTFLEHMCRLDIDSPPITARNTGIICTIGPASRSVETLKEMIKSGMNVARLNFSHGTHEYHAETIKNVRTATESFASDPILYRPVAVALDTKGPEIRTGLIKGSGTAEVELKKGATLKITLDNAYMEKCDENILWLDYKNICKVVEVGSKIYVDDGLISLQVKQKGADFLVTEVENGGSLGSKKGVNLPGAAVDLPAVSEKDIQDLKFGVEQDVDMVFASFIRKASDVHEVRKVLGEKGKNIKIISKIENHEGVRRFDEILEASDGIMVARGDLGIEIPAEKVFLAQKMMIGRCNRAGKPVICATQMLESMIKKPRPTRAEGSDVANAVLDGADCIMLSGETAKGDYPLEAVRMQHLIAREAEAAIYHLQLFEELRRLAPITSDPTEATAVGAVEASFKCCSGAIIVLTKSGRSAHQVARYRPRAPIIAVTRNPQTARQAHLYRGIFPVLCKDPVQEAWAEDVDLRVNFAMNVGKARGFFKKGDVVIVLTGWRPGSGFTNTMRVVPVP

For the compound `C#CC(=O)Nc1ccc(-n2nc(CCC(=O)NC)cc2-c2ccc(-c3ccc(C(F)(F)F)cc3)cc2)cc1` [compound 1, N-(4-(3-(3-(Methylamino)-3-oxopropyl)-5-(4′-(trifluoromethyl)-[1,1′-biphenyl]-4-yl)-1H-pyrazol-1-yl)phenyl)propiolamide], the half-maximal inhibitory concentration (IC50) (in general, the midpoint of a concentration-inhibition curve) turned out to be 100 nM in experiment [1], 1000 nM in experiment [2], 600 nM in experiment [3] and 1000 nM with H1975 lung cancer cells. Also, in experiment [4], the “inhibition of kinases in profiling panel” value was “none of the kinases examined was effectively inhibited”. The ROS level entry in experiment [5] is “reduced the ROS level”. Also, the “inhibition of kinase activity of recombinant PKM2” value at PKM2 is listed as “suppress the kinase activity of PKM2”.
